From patent US8383651B2, “Compounds which selectively modulate the CB2 receptor” (Boehringer Ingelheim International GmbH, priority 2009, dated 2013) come the findings set out here.

In test [1] the target is T1, human CB2R (Homo sapiens, UniProt P34972).
T1 construct: host or cells: CHO cells
The test can be described thus: CB2R mediated modulation of cAMP synthesis. Format: cell-based. How it is done: B. CB2R Mediated Modulation of Camp Synthesis:
Compounds of the invention are evaluated for their CB2 agonist or inverse agonistic activity in accordance with the following experimental method.
(§1) CHO cells expressing human CB2R (Euroscreen) are plated at a density of 5000 cells per well in 384 well plates and incubated overnight at 37° C. After removing the media, the cells are treated with test compounds diluted in stimulation buffer containing 1 mM IBMX, 0.25% BSA and 10 uM Forskolin. The assay is incubated for 30 minutes at 37° C. Cells are lysed and the cAMP concentration is measured using DiscoverX-XS cAMP kit, following the manufacturer's protocol. In this setting, agonists will decrease forskolin induced production of cAMP while inverse agonists will further increase forskolin induced production of cAMP. EC50 of agonists are calculated as follows. The maximal amount of cAMP produced by forskolin compared to the level of cAMP inhibited by 1 uM CP55940 is defined as 100%. The EC50 value of each test compound is determined as the concentration at which 50% of the forskolin-stimulated cAMP synthesis is inhibited. Data is analyzed using a four-parameter logistic model. (Model 205 of XLfit 4.0).

Test [2] addresses T2, human CB1R (Homo sapiens, UniProt P21554).
T2 construct: host or cells: CHO cells
The test can be described thus: CB1R mediated modulation of cAMP synthesis. The test is classed as cell-based. Conditions: inhibition of forskolin-stimulated cAMP synthesis. On the procedure: C. CB1R Mediated Modulation of cAMP Synthesis:
Compounds of the invention are evaluated for their CB1 agonist or inverse agonistic activity in accordance with the following experimental method.
as §1, with “CB1R” for “CB2R”

Where [3] appears, read: CHO cells expressing human CB2R, inhibition of forskolin-stimulated cAMP synthesis, read-out: CB2 EC50.
[4] abbreviates: CHO cells expressing human CB1R, read-out: CB1 EC50.
[5] abbreviates: CB1 EC50, CHO cells expressing human CB1R.

For orientation: EC50 means the midpoint of the concentration-response curve.

SMILES strings stand for the structures. Like-named read-outs stand apart in the source and are kept apart here.

T2 sequence (P21554 whole entry): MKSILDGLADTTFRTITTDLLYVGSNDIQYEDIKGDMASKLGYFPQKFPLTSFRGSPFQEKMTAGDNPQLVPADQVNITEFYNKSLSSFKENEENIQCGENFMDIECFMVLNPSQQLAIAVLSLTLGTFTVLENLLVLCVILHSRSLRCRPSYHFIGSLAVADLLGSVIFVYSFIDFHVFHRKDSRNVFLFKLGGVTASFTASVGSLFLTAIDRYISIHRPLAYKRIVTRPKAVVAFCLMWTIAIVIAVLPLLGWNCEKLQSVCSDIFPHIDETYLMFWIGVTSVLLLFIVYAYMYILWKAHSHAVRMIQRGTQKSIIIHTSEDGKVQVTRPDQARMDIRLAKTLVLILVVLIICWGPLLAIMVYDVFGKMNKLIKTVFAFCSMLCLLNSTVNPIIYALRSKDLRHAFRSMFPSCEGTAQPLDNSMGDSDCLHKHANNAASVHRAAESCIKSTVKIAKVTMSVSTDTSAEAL
T1 sequence (P34972 whole entry): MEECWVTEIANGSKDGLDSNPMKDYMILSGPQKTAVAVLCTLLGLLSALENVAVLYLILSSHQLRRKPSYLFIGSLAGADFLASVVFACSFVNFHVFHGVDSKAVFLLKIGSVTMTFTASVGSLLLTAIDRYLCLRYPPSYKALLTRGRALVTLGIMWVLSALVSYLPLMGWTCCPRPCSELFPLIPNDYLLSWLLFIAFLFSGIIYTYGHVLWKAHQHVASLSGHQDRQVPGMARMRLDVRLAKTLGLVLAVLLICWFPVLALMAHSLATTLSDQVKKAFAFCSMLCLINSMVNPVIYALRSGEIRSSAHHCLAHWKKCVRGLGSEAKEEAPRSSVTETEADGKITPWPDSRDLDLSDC

Consider `Cc1cc(-c2n[nH]c(NC(=O)C(C)(C)S(=O)(=O)C3CCOCC3)n2)no1`, for which the concentration for a half-maximal effect (EC50) in test [1] (setting [3]) was 268 nM; in test [2] (setting [4]) it was > 50 µM.

With `Cc1cc(-c2nnc(NC(=O)C(C)(C)S(=O)(=O)CCCC(F)(F)F)[nH]2)no1`, the concentration for a half-maximal effect (EC50) in test [1] (setting [3]) was 271 nM; in test [2] (setting [4]) it was > 50 µM. In the case of `Cc1ncc(C2(c3cc(NC(=O)C(C)(C)S(=O)(=O)C4CCOCC4)on3)CCCC2)o1` [drawing 84], the concentration giving a half-maximal response (EC50) in test [1] was 4.6 nM; in test [2] (setting [5]), 30 µM. Taken in the same sequence, the figures for `CC(C)(c1cc(NC(=O)C(C)(C)S(=O)(=O)C2CCOCC2)on1)c1cnc(-c2ccccc2)o1` were 21 nM and > 50 µM. Take `CCc1ncc(C(C)(C)c2cc(NC(=O)C(C)(C)S(=O)(=O)C3CCN(S(C)(=O)=O)CC3)on2)o1`: the results for the 50% effective concentration (EC50) in test [1] and in test [2] (setting [5]) were 25 nM and 26.5 µM, respectively.

As for `CC(C)(C(=O)Nc1nc(-c2ncco2)n[nH]1)S(=O)(=O)C1CCOCC1`, the EC50 was 84 nM in test [1] and > 50 µM in test [2] (setting [5]). Consider `Cc1cc(-c2nnc(NC(=O)C(C)(C)S(=O)(=O)CCC(C)C)[nH]2)no1`, for which the EC50 in test [1] was 37 nM; in test [2] (setting [5]), > 50 µM.

Turning to `Cc1cc(-c2nnc(NC(=O)C(C)(C)S(=O)(=O)C3CCCCC3)[nH]2)on1`, the EC50 in test [1] is 55 nM; in test [2] (setting [5]), > 20 µM. On to `Cc1ncc(C2(c3cc(NC(=O)C(C)(C)S(=O)(=O)C4CCOCC4)on3)CCCC2)o1` [drawing 89], for which the EC50 in test [2] (setting [5]) was found to be 30 µM. As for `Cc1cc(-c2nnc(NC(=O)C(C)(C)S(=O)(=O)CCC(C)C)[nH]2)on1`, the EC50 was 142 nM in test [1] (setting [3]) and > 50 µM in test [2] (setting [4]). `Cc1nnc(C(C)(C)c2cc(NC(=O)C(C)(C)S(=O)(=O)c3ccc(F)cc3)on2)o1`: the results for the EC50 in test [1] and in test [2] (setting [5]) were 97 nM and > 50 µM, respectively. Turning to `Cc1cc(-c2nnc(NC(=O)C(C)(C)S(=O)(=O)CCC3CCOCC3)[nH]2)on1`, the EC50 in test [1] (setting [3]) was 142 nM; in test [2] (setting [4]), > 50 µM.

In the case of `CC(C)(C(=O)Nc1nnc(-c2nccs2)[nH]1)S(=O)(=O)C1CCOCC1`, the EC50 was 303 nM in test [1] (setting [3]) and > 50 µM in test [2] (setting [4]). In the same order, the values of `Cc1nnc(C(C)(C)c2cc(NC(=O)C(C)(C)S(=O)(=O)C3CCN(S(C)(=O)=O)CC3)on2)o1` are 161 nM and > 50 µM.

`Cc1cc(-c2n[nH]c(NC(=O)C(C)(C)S(=O)(=O)C3CCOCC3)n2)n(C)n1`: the EC50 in test [1] (setting [3]) is 487 nM; in test [2] (setting [4]) it was > 50 µM.

On to `Cc1ncc(C(C)(C)c2cc(NC(=O)C(C)(C)S(=O)(=O)C3CCN(S(C)(=O)=O)CC3)on2)s1`, for which the EC50 in test [1] was found to be 28 nM; in test [2] (setting [5]), 25.1 µM. `CC(C)CCS(=O)(=O)C(C)(C)C(=O)Nc1nnc(-c2ncco2)[nH]1`: the figures for the EC50 in test [1] (setting [3]) and in test [2] (setting [4]) were 172 nM and > 50 µM, respectively. In the case of `Cc1ncc(C(C)(C)c2cc(NC(=O)C(C)(C)S(=O)(=O)C3CCOCC3)on2)o1`, the concentration giving a half-maximal response (EC50) is 6.8 nM in test [1] and > 200 µM in test [2] (setting [5]). Turning to `Cc1nnc(C(C)(C)c2cc(NC(=O)C(C)(C)S(=O)(=O)CCCC(F)(F)F)on2)o1`, the 50% effective concentration (EC50) was found to be 18 nM in test [1] and 23.1 µM in test [2] (setting [5]). As for `Cc1ncc(C(C)(C)c2cc(NC(=O)C(C)(C)S(=O)(=O)C3CCOCC3)on2)s1`, the values for the EC50 in test [1] and in test [2] (setting [5]) were 3.4 nM and > 50 µM, respectively.
